According to ChEMBL document CHEMBL6127022, “Acid-sensitive prodrugs; a promising approach for site-specific and targeted drug release” (Eur J Med Chem, 2024):
≈ marks a conversion by molar mass, not a printed value.

How the values were obtained:
RAW264.7 [1] = experiment: Anti-inflammatory activity in LPS-induced mouse RAW264.7 cells assessed as inhibition of TNF-alpha production at 10 uM incubated for 24 hrs by qRT-PCR analysis relative to control; type: functional; design: scale not given: the % may be the effect or the level left
RAW264.7 [2] = experiment: Anti-inflammatory activity in LPS-induced mouse RAW264.7 cells assessed as inhibition of IL-6 production at 10 uM incubated for 24 hrs by qRT-PCR analysis relative to control; type: functional; design: scale not given: the % may be the effect or the level left
KB = experiment: Antitumor activity against human KB cells assessed as reduction in cell growth incubated for 96 hrs by MTT assay; type: functional, cell-based
HeLa = experiment: cells; conditions: Homo sapiens, 96 h
Description: Anticancer activity against human HeLa cells assessed as inhibition of cell growth incubated for 96 hrs by MTT assay

NC(=O)Nc1sc(-c2ccc(F)cc2)cc1C(N)=O
Activity (RAW264.7 [1]): 20%

CC(C)Cc1ccc(C(C)C(=O)O)cc1 (stereo unspecified) [IBUPROFEN]
Activity (RAW264.7 [1]): 90%

CN(Cc1cnc2nc(N)nc(N)c2n1)c1ccc(C(=O)N[C@@H](CCC(=O)O)C(=O)O)cc1 [METHOTREXATE]
Activity (RAW264.7 [2]): 78.5%

COc1ccc2cc([C@H](C)C(=O)O)ccc2c1 [NAPROXEN]
Activity (RAW264.7 [2]): 65%

CC(=O)O[C@H]1C(=O)[C@@]2(C)[C@H]([C@H](OC(=O)c3ccccc3)[C@]3(O)C[C@H](OC(=O)[C@H](O)[C@@H](NC(=O)c4ccccc4)c4ccccc4)C(C)=C1C3(C)C)[C@]1(OC(C)=O)CO[C@@H]1C[C@@H]2O [PACLITAXEL]
IC50 (KB): 0.18 µg/mL (≈ 0.211 µM) | IC50 (HeLa): 0.9 µg/mL (≈ 1.05 µM)
